Experimental data published in patent US8309558B2, “Compounds for the treatment of hepatitis C” (Bristol-Myers Squibb Company, priority 2008, dated 2012).
Read-outs that look alike come from different tables or passages of the source.

System: HCV replicon cells
Test: HCV replicon FRET / luciferase assay (96-well plates)
Format: cell-based
Conditions: Hepatitis C virus, HCV replicon, read-out: EC50
From the text: FRET Assay Preparation. To perform the HCV FRET screening assay, 96-well cell culture plates were used. The FRET peptide (Anaspec, Inc.) (Taliani et al., Anal. Biochem. 1996, 240, 60-67) contains a fluorescence donor, EDANS, near one end of the peptide and an acceptor, DABCYL, near the other end. The fluorescence of the peptide is quenched by […] resonance energy transfer (RET) between the donor and the acceptor, but as the NS3 protease cleaves the peptide the products are released from RET quenching and the fluorescence of the donor becomes apparent. The assay reagent was made as follows: 5× cell Luciferase cell culture lysis reagent from Promega (#E153A) diluted to 1× with dH2O, NaCl added to 150 mM final, the FRET peptide diluted to 20 μM final from a 2 mM stock.
To prepare plates, HCV replicon cells, with or without a Renilla luciferase reporter gene, were trypsinized and placed into each well of a 96-well plate with titrated test compounds added in columns 3 through 12; columns 1 and 2 contained a control compound (HCV protease inhibitor), and the bottom row contained cells without compound. The plates were then placed in a CO2 incubator at 37° C.
Assays. Subsequent to addition of the test compounds described above (FRET Assay Preparation), at various times the plate was removed and Alamar blue solution (Trek Diagnostics, #00-100) was added per well as a measure of cellular toxicity. After reading in a Cytoflour 4000 instrument (PE Biosystems), plates were rinsed with PBS and then used for FRET assay by the addition of 30 ul of the FRET peptide assay reagent described above (FRET Assay Preparation) per well. The plate was then placed into the Cytoflour 4000 instrument which had been set to 340 excite/490 emission, automatic mode for 20 cycles and the plate read in a kinetic mode. Typically, the signal to noise using an endpoint analysis after the reads was at least three-fold. Alternatively, after Alamar blue reading, plates were rinsed with PBS, 50 ul of DMEM (high glucose) without phenol red was added and plates were then used for luciferase assay using the Promega Dual-Glo Luciferase Assay System.
Compound analysis was determined by quantification of the relative HCV replicon inhibition and the relative cytotoxicity values. To calculate cytoxicity values, the average Alamar Blue fluorescence signals from the control wells were set as 100% non-toxic. The individual signals in each of the compound test wells were then divided by the average control signal and multiplied by 100% to determine […]. To calculate the HCV replicon inhibition values, an average background value was obtained from the two wells containing the highest amount of HCV protease inhibitor at the end of the assay period. These numbers were similar to those obtained from naïve Huh-7 cells.
The background numbers were then subtracted from the average signal obtained from the control wells and this number was used as 100% activity. The individual signals in each of the compound test wells were then divided by the averaged control values after background subtraction and multiplied by 100% to determine percent activity. EC50 values for a protease inhibitor titration were calculated as the concentration which caused a 50% reduction in FRET or luciferase activity. The two numbers generated for the compound plate, percent cytoxicity and percent activity were used to determine compounds of interest for further analysis.

SMILES	EC50 (24 h, Table 1d (class symbols)) [nM]	also measured
CNC(=O)c1c(-c2ccc(F)cc2)oc2ccc(-c3cc(C(=O)NC4(c5ccccn5)CC4)c(OCC#N)cc3C)cc12	1 to 250	
CNC(=O)c1c(-c2ccc(F)cc2)oc2ccc(-c3cc(C(=O)NC4(c5cc(C)on5)CC4)ccc3C)cc12		EC50 (Table 1b): < 250 nM
CNC(=O)c1c(-c2ccc(F)cc2)oc2ccc(-c3cc(C(=O)NC4(c5nccc(C)n5)CC4)ccc3C)c(F)c12	1 to 250	
CNC(=O)c1c(-c2ccc(F)cc2)oc2ccc(-c3cc(C(=O)NC4(c5ncc(C)cn5)CC4)ccc3C)cc12	1 to 250	
CNC(=O)c1c(-c2ccc(F)cc2)oc2ccc(-c3cc(C(=O)NC4(c5ccccn5)CC4)c(OCc4ccncc4)cc3C)cc12	1 to 250	
CNC(=O)c1c(-c2ccc(F)cc2)oc2ccc(-c3cc(C(=O)NC4(c5noc(-c6ccccc6)n5)CC4)ccc3C)cc12		EC50 (Table 1b): < 250 nM
CNC(=O)c1c(-c2ccc(F)cc2)oc2ccc(OCC(=O)NCc3nc4ccccc4s3)cc12		EC50 (Table 1a): 1000 to 10000 nM
CNC(=O)c1c(-c2ccc(F)cc2)oc2ccc(-c3cc(C(=O)NC4(c5cccnn5)CC4)ccc3C)c(F)c12	1 to 250	
CNC(=O)c1c(-c2ccc(F)cc2)oc2ccc(-c3cc(C(=O)NC4(c5ccccn5)CC4)c(OCc4cccc(Cl)c4)cc3C)cc12	1 to 250	
CNC(=O)c1c(-c2ccc(F)cc2)oc2ccc(-c3cc(C(=O)NC4(c5ocnc5C)CC4)ccc3C)cc12	1 to 250	
CNC(=O)c1c(-c2ccc(F)cc2)oc2ccc(-c3cc(C(=O)NC4(c5ncc(F)cn5)CC4)ccc3C)c(F)c12	1 to 250	
CNC(=O)c1c(-c2ccc(F)cc2)oc2ccc(-c3cc(C(=O)NC4(c5ccccn5)CC4)c(OCc4ccccc4)cc3C)cc12	1 to 250	
CCCn1cc(-c2ccc(-c3ccc4oc(-c5ccc(F)cc5)c(C(=O)NC)c4c3)cc2C(=O)NCC(C)C)cn1		EC50 (Table 1b): < 250 nM
CNC(=O)c1c(-c2ccc(F)cc2)oc2ccc(-c3cc(C(=O)NC4(c5ncc(F)cn5)CC4)c(OC)cc3C)c(F)c12 [drawing 689]	1 to 250	
CNC(=O)c1c(-c2ccc(F)cc2)oc2ccc(-c3cc(C(=O)NC4(c5ccccn5)CC4)c(OCc4cccnc4)cc3C)cc12	1 to 250	
CNC(=O)c1c(-c2ccc(F)cc2)oc2ccc(-c3cc(C(=O)NC4(c5cnccn5)CC4)c(OC)cc3C)c(F)c12	1 to 250	
CNC(=O)c1c(-c2ccc(F)cc2)oc2ccc(-c3cc(C(=O)NC4(c5cncnc5)CC4)c(OC)cc3C)cc12	1 to 250	
CNC(=O)c1c(-c2ccc(F)cc2)oc2ccc(-c3ccc(-c4cccc(C(=O)O)c4)c(C(=O)NCC(C)C)c3)cc12		EC50 (Table 1b): 1000 to 10000 nM
CNC(=O)c1c(-c2ccc(F)cc2)oc2ccc(-c3cccc(C(=O)NC(C)(C)c4cccc(C)n4)c3)cc12		EC50 (Table 1b): 250 to 1000 nM
CNC(=O)c1c(-c2ccc(F)cc2)oc2ccc(-c3cc(C(=O)NC4(c5ccccn5)CC4)c(OCCCN(C)C)cc3C)cc12	1 to 250	
CNC(=O)c1c(-c2ccc(F)cc2)oc2ccc(-c3cc(C(=O)NC4(c5ccccn5)CC4)c(OCc4ccccn4)cc3C)cc12	1 to 250	
CNC(=O)c1c(-c2ccc(F)cc2)oc2ccc(-c3cc(C(=O)NC4(c5ccncn5)CC4)ccc3C)cc12 [drawing 713]		EC50 (24 h, second table titled Table 1d (numbers)): 2 nM
CNC(=O)c1c(-c2ccc(F)cc2)oc2ccc(-c3cc(C(=O)NC4(c5ccccn5)CC4)c(OCCN(C)C)cc3C)cc12	1 to 250	
CNC(=O)c1c(-c2ccc(F)cc2)oc2ccc(-c3cc(C(=O)NC4(c5ncc(C)cn5)CC4)ccc3C)c(F)c12	1 to 250	
CNC(=O)c1c(-c2ccc(F)cc2)oc2ccc(-c3cc(C(=O)NC4(c5nccc(C)n5)CC4)c(OC)cc3C)c(F)c12	1 to 250	
CNC(=O)c1c(-c2ccc(F)cc2)oc2ccc(-c3cc(C(=O)NC4(c5ccncn5)CC4)c(OC)cc3C)c(F)c12	1 to 250	
CNC(=O)c1c(-c2ccc(F)cc2)oc2ccc(-c3ccc(-c4ccccc4CO)c(C(=O)NCC(C)C)c3)cc12		EC50 (Table 1b): < 250 nM

SMILES	EC50 (24 h, Table 1d (class symbols)) [nM]	also measured
CNC(=O)c1c(-c2ccc(F)cc2)oc2ccc(-c3cc(C(=O)NC4(c5ccccn5)CC4)c(OCCCOC)cc3C)cc12	1 to 250	
CNC(=O)c1c(-c2ccc(F)cc2)oc2ccc(-c3cc(C(=O)NC4(c5ccccn5)CC4)c(OCCn4ccnc4)cc3C)cc12	1 to 250	
CNC(=O)c1c(-c2ccc(F)cc2)oc2ccc(-c3cc(C(=O)NC4(c5ccccn5)CC4)c(OCc4ccccc4Cl)cc3C)cc12	1 to 250	
CNC(=O)c1c(-c2ccc(F)cc2)oc2ccc(-c3ccc(-c4ccccc4Cl)c(C(=O)NC4(c5ccccn5)CC4)c3)cc12		EC50 (Table 1b): < 250 nM
CNC(=O)c1c(-c2ccc(F)cc2)oc2ccc(-c3cc(C(=O)NC4(c5ccccn5)CC4)c(OCCC(C)C)cc3C)cc12	1 to 250	
CNC(=O)c1c(-c2ccc(F)cc2)oc2cc(N(CCO)S(C)(=O)=O)c(-c3cccc(C(=O)NC(C)(C)c4ccncc4)c3)cc12		EC50 (Table 1b): < 250 nM
CNC(=O)c1c(-c2ccc(F)cc2)oc2ccc(-c3cc(C(=O)NC4(c5ccccn5)CC4)c(OCCN4CCOCC4)cc3C)cc12	1 to 250	
CNC(=O)c1c(-c2ccc(F)cc2)oc2ccc(-c3cc(C(=O)NC4(c5ccncn5)CC4)c(OC)cc3C)cc12	1 to 250	
CCCc1nnc(C2(NC(=O)c3ccc(C)c(-c4ccc5oc(-c6ccc(F)cc6)c(C(=O)NC)c5c4)c3)CC2)[nH]1		EC50 (Table 1b): < 250 nM
CNC(=O)c1c(-c2ccc(F)cc2)oc2ccc(-c3cc(C(=O)NC(C)(C)C)c(OC)cc3OCC(N)=O)cc12	1 to 250	
CNC(=O)c1c(-c2ccc(F)cc2)oc2ccc(-c3cc(C(=O)NC4(c5cccnn5)CC4)c(OC)cc3C)cc12	1 to 250	
CNC(=O)c1c(-c2ccc(F)cc2)oc2ccc(-c3cc(C(=O)NC4(c5cnn(C)c5)CC4)ccc3C)cc12	1 to 250	
CNC(=O)c1c(-c2ccc(F)cc2)oc2ccc(-c3cc(C(=O)NC4(c5ccccn5)CC4)c(OC4CCOCC4)cc3C)cc12	1 to 250	
CNC(=O)c1c(-c2ccc(F)cc2)oc2ccc(-c3cc(C(=O)NC4(c5nc(C)no5)CC4)ccc3C)cc12 [drawing 478]		EC50 (Table 1b): < 250 nM
CNC(=O)c1c(-c2ccc(F)cc2)oc2ccc(-c3cc(C(=O)NC4(c5ncoc5C)CC4)ccc3C)cc12	1 to 250	
CCOc1ccc(C(=O)NCC(C)C)cc1-c1ccc2oc(-c3ccc(F)cc3)c(C(=O)NC)c2c1		EC50 (Table 1b): < 250 nM
CNC(=O)c1c(-c2ccc(F)cc2)oc2ccc(-c3cc(C(=O)NC4(c5ccncn5)CC4)ccc3C)cc12 [drawing 684]	1 to 250	
CNC(=O)c1c(-c2ccc(F)cc2)oc2ccc(-c3cc(C(=O)NC4(c5ccnnc5)CC4)ccc3C)c(F)c12	1 to 250	
CNC(=O)c1c(-c2ccc(F)cc2)oc2ccc(-c3cc(C(=O)NC4(c5ccnnc5)CC4)c(OC)cc3C)cc12	1 to 250	
CNC(=O)c1c(-c2ccc(F)cc2)oc2ccc(-c3cc(C(=O)NC4(c5ccccn5)CC4)c(OCC4CCOCC4)cc3C)cc12	1 to 250	
CCOc1cccc(-c2ccc(-c3ccc4oc(-c5ccc(F)cc5)c(C(=O)NC)c4c3)cc2C(=O)NCC(C)C)c1		EC50 (Table 1b): < 250 nM
CNC(=O)c1c(-c2ccc(F)cc2)oc2ccc(-c3cc(C(=O)NC4(c5ccccn5)CC4)c(OCCc4ccc(OC)cc4)cc3C)cc12	1 to 250	
CNC(=O)c1c(-c2ccc(F)cc2)oc2ccc(-c3cc(C(=O)NC4(c5ccncn5)CC4)ccc3C)c(F)c12	1 to 250	
CNC(=O)c1c(-c2ccc(F)cc2)oc2ccc(-c3cc(C(=O)NC4(c5noc(C)n5)CC4)c(OC)cc3C)cc12		EC50 (Table 1b): < 250 nM
CNC(=O)c1c(-c2ccc(F)cc2)oc2ccc(-c3cc(C(=O)NC4(c5nc(C)cc(C)n5)CC4)ccc3C)cc12	1 to 250	
CNC(=O)c1c(-c2ccc(F)cc2)oc2ccc(-c3cc(C(=O)NC4(c5ccccn5)CC4)c(OC4CCCCC4)cc3C)cc12	1 to 250	
